{"source": "paper PMC11971462", "about": "“Generation and validation of a novel multitarget small molecule in glioblastoma” (Cell Death & Disease, 2025)", "key": {"recombinant hMAO-A": {"target": "T1, recombinant hMAO-A (Homo sapiens, UniProt P21397)", "T1 construct": "purchased Sigma-Aldrich", "T1 sequence (P21397 whole entry)": "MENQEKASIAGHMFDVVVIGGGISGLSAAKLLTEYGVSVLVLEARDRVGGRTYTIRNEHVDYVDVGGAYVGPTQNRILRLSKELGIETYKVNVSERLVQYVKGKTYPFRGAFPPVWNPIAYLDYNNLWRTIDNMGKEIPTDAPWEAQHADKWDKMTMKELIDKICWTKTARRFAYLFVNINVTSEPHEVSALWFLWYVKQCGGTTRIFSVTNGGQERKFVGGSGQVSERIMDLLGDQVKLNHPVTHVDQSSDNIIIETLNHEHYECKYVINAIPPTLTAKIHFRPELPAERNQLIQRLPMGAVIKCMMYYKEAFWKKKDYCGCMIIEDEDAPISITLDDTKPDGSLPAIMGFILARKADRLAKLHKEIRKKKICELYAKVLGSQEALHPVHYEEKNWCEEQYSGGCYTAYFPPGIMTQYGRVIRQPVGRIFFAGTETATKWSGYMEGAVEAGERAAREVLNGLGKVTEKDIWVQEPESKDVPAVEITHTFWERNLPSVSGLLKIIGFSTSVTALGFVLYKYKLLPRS", "test": "MAO-A inhibition (Ampliflu Red/peroxidase, tyramine)", "format": "biochemical", "settings": "10 µM compound; read-out: MAO-A inhibition percentage", "procedure": "(§1) The inhibitory capacity of DDI199 on HDACs was studied as previously described. The capacity of DDI199 to inhibit MAOs was studied by mimicking the reaction occurring in cells. Briefly, inhibitor solution containing 10 µM of DDI199 or reference compound was incubated for 30 minutes at 37 °C together with the enzyme solution, containing either recombinant hMAO-A (Sigma-Aldrich) at 0.5 U/mL or hMAO-B (Sigma-Aldrich) at 1.5 U/mL. 200 U/mL horseradish peroxidase (Sigma-Aldrich), 20 mM Ampliflu Red (Sigma-Aldrich) and 100 mM tyramine hydrochloride (Sigma-Aldrich) were then added and absorbance at 570 nm was measured every 5 minutes for 30 minutes. Percentage of inhibition was estimated from these values."}, "U87-MG tumor cells": {"test_system": "U87-MG tumor cells", "test": "Re-injection (regrowth) of cells from treated tumors", "format": "in vivo, athymic nude-Foxn1nu mice", "procedure": "For tumor growth experiments, 5 × 10^5 U87-MG cells were subcutaneously injected into two bottom flanks of athymic nude-Foxn1^nu mice, and once tumors reached a size of 25-50 mm^3, mice were sorted into groups taking into account gender and tumor size. Afterwards, mice were intratumorally treated with vehicle, SAHA 100 µM or DDI199 100 µM following a schedule of 5 days on and 2 days off. In combined treatment, mice were treated intraperitoneally with 0.5 mg/Kg of TMZ for 5 days and intratumorally following a schedule of 5 days on and 2 days off with vehicle, SAHA 100 µM or DDI199 100 µM. After 4 weeks of treatment, some mice were kept for washout experiment, while the rest were sacrificed and tumors were extracted for immunohistochemistry and to disaggregate for reinjection and oncosphere formation studies. For reinjection assays, 1.5 × 10^5 cells were subcutaneously injected and tumor size was periodically measured. Once tumors reached end-point criteria, they were extracted for immunohistochemical analysis. An external caliper was used for tumor size measurement and the tumor volume was estimated using the formula V = L · W^2 · 0.5 (where L is tumor length and W is the tumor width)."}, "GNS166 cells [1]": {"test_system": "GNS166 cells", "test": "Cell cycle analysis by flow cytometry", "format": "cell-based, human", "settings": "for Cell subpopulation in Sub G1: non-treated 1.9%; for Cell subpopulation in G2/M phase: non-treated 25%", "procedure": "Cells were harvested using accutase and washed with PBS. 1·10^6 cells were fixed with 70% cold ethanol at −20 °C for at least 24 h, and incubated with 0.5% Triton X-100 and 25 µg/mL RNase A in PBS for 30 min at room temperature. Then, DNA was stained with […] propidium iodide for 15 min and samples were analyzed using a CytoFLEX flow cytometer (Beckman Coulter Co.)."}, "GNS166 cells [2]": {"test_system": "GNS166 cells", "test": "Immunofluorescence of pH3, Cleaved Caspase 3, Ki67, PARP1", "format": "cell-based, human", "settings": "for pH3-positive cells: control 3%", "procedure": "Immunofluorescence assays were performed following standard procedures. Cells were seeded at a density of 2 × 10^4 cells/well in 8-well immunofluorescence chambers (LabTek Thermo) and incubated overnight before treating with increasing concentrations of DDI199. After 48 h, cells were fixed with 4% PFA. Primary antibodies against phosphohistone H3 (pH3) (ab14955, abcam), Cleaved Caspase 3 (AF385, R&D Systems), Ki67 (ab15580, abcam) and PARP1 (ab32064, abcam) were used. Secondary antibodies were Alexa Fluor anti-mouse (A21422, Invitrogen) and Alexa Fluor anti-rabbit (A31572, Invitrogen), and chromatin was stained with DAPI (D9541, Sigma-Aldrich). Axio Observer 7 epifluorescence microscope was used to take pictures, which were later quantified in Qupath."}, "GNS166 cells [3]": {"test_system": "GNS166 cells", "test": "Western blot of HDAC6, HDAC1, acetyl α-tubulin, acetyl H3", "format": "cell-based, human", "settings": "U87-MG and glioma stem cells (GNS166)", "procedure": "(§2) Protein lysates were resolved using sodium dodecyl sulfate-polyacrylamide gel electrophoresis. Primary antibodies against HDAC1 (Ab109411, abcam), HDAC6 (7558S, Cell Signaling), acetyl H3 (9649, Cell Signaling), acetyl α-tubulin (Ab24610, abcam), acetylated-Lysine (9441, Cell Signaling) and β-actin (A5441, Sigma-Aldrich) were used. Membranes were then incubated with the corresponding anti-rabbit (7074S, Cell Signaling) or anti-mouse (7076S, Cell Signaling) secondary antibody conjugated to horseradish peroxidase (HRP), and NOVEX ECL Chemi Substrate (ThermoFisher) or SuperSignal West Femto Maximum Sensitivity Substrate (ThermoFisher) was used for protein detection by iBright imaging system."}, "U87-MG cells [4]": {"test_system": "U87-MG cells", "test": "Western blot of HDAC6, HDAC1, acetyl α-tubulin, acetyl H3", "format": "cell-based, human", "procedure": "as §2"}, "U87-MG cells [5]": {"test_system": "U87-MG cells", "test": "Cell viability with TMZ and DDI199 alone or combined", "format": "cell-based, human", "settings": "72 h", "procedure": "MTT assay was used to study cell viability. For that, cells were seeded at a density of 1.5 × 10^3 cells/well in 96-well plates, incubated overnight and then treated with increasing concentrations of DDI199. After 72 h of treatment, MTT absorbance was measured at 570 nm. GraphPad Prism software was used to analyze results and calculate IC50 values."}, "recombinant hMAO-B": {"target": "T2, recombinant hMAO-B (Homo sapiens, UniProt P27338)", "T2 construct": "purchased Sigma-Aldrich", "T2 sequence (P27338 whole entry)": "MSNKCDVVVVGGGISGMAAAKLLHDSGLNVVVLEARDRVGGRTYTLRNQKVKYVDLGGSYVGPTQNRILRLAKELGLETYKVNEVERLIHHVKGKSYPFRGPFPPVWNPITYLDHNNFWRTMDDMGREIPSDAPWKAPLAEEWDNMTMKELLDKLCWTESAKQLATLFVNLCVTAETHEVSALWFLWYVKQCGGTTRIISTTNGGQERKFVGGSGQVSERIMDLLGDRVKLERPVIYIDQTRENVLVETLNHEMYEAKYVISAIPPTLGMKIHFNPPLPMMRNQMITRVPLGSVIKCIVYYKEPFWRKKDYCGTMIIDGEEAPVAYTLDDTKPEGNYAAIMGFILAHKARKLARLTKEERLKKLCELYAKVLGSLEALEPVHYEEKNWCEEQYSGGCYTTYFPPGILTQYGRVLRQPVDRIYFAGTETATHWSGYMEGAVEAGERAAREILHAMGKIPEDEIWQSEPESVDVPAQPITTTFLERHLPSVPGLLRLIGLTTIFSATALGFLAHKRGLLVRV", "test": "biochemical", "procedure": "as §1"}}}
{"smiles": "C#CCN(Cc1cc2cc(OCCCN3CCCCC3)ccc2n1S(=O)(=O)c1ccccc1)C(=O)CCCCCCC(=O)NO", "note": "[DDI199]", "values": [{"measurement": "inhibition at 10 µM", "setting": "recombinant hMAO-A", "result": 35, "unit": "%"}, {"measurement": "Tumors reforming after re-injection, combined with TMZ", "setting": "U87-MG tumor cells; cells from TMZ + DDI199 treated tumors", "result": "1 tumor out of 3"}, {"measurement": "Reduction of final tumor weight after re-injection versus control", "setting": "U87-MG tumor cells; cells from treated tumors", "result": "~70", "unit": "%"}, {"measurement": "Reduction of tumor volume after re-injection versus control", "setting": "U87-MG tumor cells; cells from treated tumors", "result": 60, "unit": "%"}, {"measurement": "Mean tumor volume after re-injection", "setting": "U87-MG tumor cells; cells from treated tumors, controls over 500 mm^3", "result": 200, "unit": "mm^3"}, {"measurement": "Cell subpopulation in Sub G1", "setting": "GNS166 cells [1]; GNS166, 5 µM", "result": 7.2, "unit": "%"}, {"measurement": "Cell subpopulation in G2/M phase", "setting": "GNS166 cells [1]; GNS166, 5 µM", "result": 35, "unit": "%"}, {"measurement": "Cell subpopulation in Sub G1", "setting": "GNS166 cells [1]; GNS166, 10 µM", "result": 11.9, "unit": "%"}, {"measurement": "Cell subpopulation in G2/M phase", "setting": "GNS166 cells [1]; GNS166, 10 µM", "result": 32, "unit": "%"}, {"measurement": "pH3-positive cells", "setting": "GNS166 cells [2]; GNS166, 1 µM", "result": 2, "unit": "%"}, {"measurement": "Ki67 positive cells", "setting": "GNS166 cells [2]; GNS166, 5 µM", "result": "almost blocking completely"}, {"measurement": "pH3-positive cells", "setting": "GNS166 cells [2]; GNS166, 5 µM", "result": 0.6, "unit": "%"}, {"measurement": "pH3-positive cells", "setting": "GNS166 cells [2]; GNS166, 10 µM", "result": 0.1, "unit": "%"}, {"measurement": "Cleaved Caspase-3-positive cells", "setting": "GNS166 cells [2]; GNS166, 1, 5 and 10 µM", "result": "increase"}, {"measurement": "PARP-positive cells", "setting": "GNS166 cells [2]; GNS166, 1, 5 and 10 µM", "result": "dose-dependent induction of apoptosis"}, {"measurement": "acetylated α-tubulin and acetylated H3 versus reference inhibitors", "setting": "GNS166 cells [3]", "result": "higher acetylated α-tubulin and acetylated H3 increase than SAHA and Tubastatin A"}, {"measurement": "acetylated H3 level", "setting": "U87-MG cells [4]; U87-MG, 0.5, 1 and 10 µM", "result": "increased their levels with increasing concentrations"}, {"measurement": "acetylated α-tubulin level", "setting": "U87-MG cells [4]; U87-MG, 0.5, 1 and 10 µM", "result": "increased their levels with increasing concentrations"}, {"measurement": "HDAC1 protein level", "setting": "U87-MG cells [4]; U87-MG, western blot", "result": "decrease"}, {"measurement": "HDAC6 protein level", "setting": "U87-MG cells [4]; U87-MG, western blot", "result": "did not alter"}, {"measurement": "Cytotoxicity in combination with TMZ", "setting": "U87-MG cells [5]; 0.5 µM DDI199 + 250 µM TMZ", "result": "over 70%"}, {"measurement": "Cell viability, single agent", "setting": "U87-MG cells [5]; 250 µM TMZ or 0.5 µM DDI199 alone", "result": "reduced cell viability"}, {"measurement": "inhibition at 10 µM", "setting": "recombinant hMAO-B; 10 µM compound, read-out: MAO-B inhibition percentage", "result": 55, "unit": "%"}, {"measurement": "IC50", "setting": "recombinant hMAO-B; read-out: MAO-B IC50", "result": 14.9, "unit": "µM"}]}
